Consider 26 compounds from patent US9834554B2, “BTK inhibitors” (MERCK SHARP & DOHME CORP., priority 2013, dated 2017).

Chain of BTK enzyme (recombinant full-length BTK, hBTK) (Q06187 whole entry): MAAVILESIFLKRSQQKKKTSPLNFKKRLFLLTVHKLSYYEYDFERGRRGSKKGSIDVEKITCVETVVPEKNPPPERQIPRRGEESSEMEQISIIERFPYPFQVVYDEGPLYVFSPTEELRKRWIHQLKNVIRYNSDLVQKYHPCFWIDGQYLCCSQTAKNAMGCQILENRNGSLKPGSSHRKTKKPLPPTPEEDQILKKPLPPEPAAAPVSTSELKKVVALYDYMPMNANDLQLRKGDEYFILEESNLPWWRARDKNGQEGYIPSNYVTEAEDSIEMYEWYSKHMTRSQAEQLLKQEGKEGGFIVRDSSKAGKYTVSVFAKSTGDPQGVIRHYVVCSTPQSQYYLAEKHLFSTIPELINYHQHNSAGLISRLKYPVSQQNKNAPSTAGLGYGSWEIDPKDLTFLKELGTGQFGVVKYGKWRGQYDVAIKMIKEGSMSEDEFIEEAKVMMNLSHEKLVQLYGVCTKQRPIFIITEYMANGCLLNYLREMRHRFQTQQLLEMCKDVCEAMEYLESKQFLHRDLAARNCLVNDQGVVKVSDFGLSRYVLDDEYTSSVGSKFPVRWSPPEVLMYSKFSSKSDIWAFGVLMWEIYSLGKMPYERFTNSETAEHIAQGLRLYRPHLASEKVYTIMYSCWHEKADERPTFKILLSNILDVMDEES

This assay concerns the target BTK enzyme (recombinant full-length BTK, hBTK) (Homo sapiens (Human), UniProt Q06187). The assay is described as follows: Btk enzyme activity assay, LANCE TR-FRET. The settings on record: read-out: BTK binding IC50; 50 pM hBTK, 2 μM biotin-A5-peptide, 25 μM ATP; 60 minute compound & enzyme incubation. (In TR-FRET formats the signal depends on donor and acceptor labels being close together.)
Method: Also BTK enzymatic activity was determined with the LANCE (Lanthanide Chelate Excite) TR-FRET (Time-resolved fluorescence resonance energy transfer) assay. […] Phosphorylation reactions were allowed to proceed for 120 minutes. […] After 60 minutes incubation with detection reagents, reaction plates were read on a PerkinElmer EnVision plate reader using standard TR-FRET protocol. Briefly, excitation of donor molecules (Eu-chelate:anti-phospho-antibody) with a laser light source at 337 nm produces energy that can be transferred to Dylight-650 acceptor molecules if this donor:acceptor pair is within close proximity. Fluorescence intensity at both 665 nm (acceptor) and 615 nm (donor) are measured and a TR-FRET ratio calculated for each well (acceptor intensity/donor intensity).
Btk Enzyme Activity Assay Method
BTK enzymatic activity was determined with the LANCE (Lanthanide Chelate Excite) TR-FRET (Time-resolved fluorescence resonance energy transfer) assay. […] Phosphorylation reactions were allowed to proceed for 120 minutes. […] After 60 minutes incubation with detection reagents, reaction plates were read on a PerkinElmer EnVision plate reader using standard TR-FRET protocol. Briefly, excitation of donor molecules (Eu-chelate:anti-phospho-antibody) with a laser light source at 337 nm produces energy that can be transferred to Dylight-650 acceptor molecules if this donor:acceptor pair is within close proximity. Fluorescence intensity at both 665 nm (acceptor) and 615 nm (donor) are measured and a TR-FRET ratio calculated for each well (acceptor intensity/donor intensity).
For orientation: IC50 means the concentration that gives 50% inhibition. Turning to `CC1(C(=O)N2CCO[C@@H](c3nn(-c4ccc(C(=O)Nc5cc(C(F)(F)F)ccn5)cc4)c4c(N)nccc34)C2)COC1` [Example 1, (R)-4-(7-amino-3-(4-(3-methyloxetane-3-carbonyl)morpholin-2-yl)-1H-pyrazolo[3,4-c]pyridin-1-yl)-N-(4-(trifluoromethyl)pyridin-2-yl)benzamide], the half-maximal inhibitory concentration (IC50) came out at 2.2 nM.

Consider `CC(=O)N1CCO[C@@H](c2nn(-c3ccc(C(=O)Nc4cc(C(F)(F)F)ccn4)cc3)c3c(N)nccc23)C1` [Example 2, 4-{3-[(2R)-4-acetylmorpholin-2-yl]-7-amino-1H-pyrazolo[3,4-c]pyridin-1-yl}-N-[4-(trifluoromethyl)pyridin-2-yl] benzamide], for which the IC50 was 2.9 nM.

Turning to `CCC(=O)N1CCO[C@@H](c2nn(-c3ccc(C(=O)Nc4cc(C(F)(F)F)ccn4)cc3)c3c(N)nccc23)C1` [Example 3, 4-{7-amino-3-[(2R)-4-propanoylmorpholin-2-yl]-1H-pyrazolo[3,4-c]pyridin-1-yl}-N-[4-(trifluoromethyl)pyridin-2-yl] benzamide], the IC50 is 1.8 nM.

Turning to `COCC(=O)Nc1nccc2c([C@H]3CN(C(=O)COC)CCO3)nn(-c3ccc(C(=O)Nc4cc(C(F)(F)F)ccn4)cc3)c12` [Example 4, 4-{7-[(methoxyacetyl)amino]-3-[(2R)-4-(methoxyacetyl)morpholin-2-yl]-1H-pyrazolo[3,4-c]pyridin-1-yl}-N-[4-(trifluoromethyl)pyridin-2-yl]benzamide], the IC50 came out at 46.5 nM.

In the case of `COCC(=O)N1CCO[C@@H](c2nn(-c3ccc(C(=O)Nc4cc(C(F)(F)F)ccn4)cc3)c3c(N)nccc23)C1` [Example 5, 4-{7-amino-3-[(2R)-4-(methoxyacetyl)morpholin-2-yl]-1H-pyrazolo[3,4-c]pyridin-1-yl}-N-[4-(trifluoromethyl)pyridin-2-yl]benzamide], the half-maximal inhibitory concentration (IC50) came out at 3.7 nM.

With `COc1ccnc(NC(=O)c2ccc(-n3nc([C@H]4CN(C(C)=O)CCO4)c4ccnc(N)c43)cc2)c1` [Example 6, 4-{3-[(2R)-4-acetylmorpholin-2-yl]-7-amino-1H-pyrazolo[3,4-c]pyridin-1-yl}-N-(4-methoxypyridin-2-yl)benzamide], the IC50 turned out to be 28.8 nM.

For `COCC(=O)N1CCO[C@@H](c2nn(-c3ccc(C(=O)Nc4cc(OC)ccn4)cc3)c3c(N)nccc23)C1` [Example 7, 4-{7-amino-3-[(2R)-4-(methoxyacetyl)morpholin-2-yl]-1H-pyrazolo[3,4-c]pyridin-1-yl}-N-(4-methoxypyridin-2-yl)benzamide], the IC50 came to 25.2 nM.

Turning to `COc1ccnc(NC(=O)c2ccc(-n3nc([C@H]4CN(C(=O)C5(C)COC5)CCO4)c4ccnc(N)c43)cc2)c1` [Example 8, 4-(7-amino-3-{(2R)-4-[(3-methyloxetan-3-yl)carbonyl]morpholin-2-yl}-1H-pyrazolo[3,4-c]pyridin-1-yl)-N-(4-methoxypyridin-2-yl)benzamide], the 50% inhibitory concentration (IC50) is 42.1 nM.

For the compound `CC1(C(=O)N2CCC[C@@H](c3nn(-c4ccc(C(=O)Nc5cc(C(F)(F)F)ccn5)cc4)c4c(N)nccc34)C2)COC1` [Example 9, (R)-4-(7-amino-3-(1-(3-methyloxetane-3-carbonyl)piperidin-3-yl)-1H-pyrazolo[3,4-c]pyridin-1-yl)-N-(4-(trifluoromethyl)pyridin-2-yl)benzamide], the IC50 was 0.47 nM.

With `Cc1n[nH]cc1C(=O)N1CCC[C@@H](c2nn(-c3ccc(C(=O)Nc4cc(C(F)(F)F)ccn4)cc3)c3c(N)nccc23)C1` [Example 10, 4-(7-amino-3-{(3R)-1-[(3-methyl-1H-pyrazol-4-yl)carbonyl]piperidin-3-yl}-1H-pyrazolo[3,4-c]pyridin-1-yl)-N-[4-(trifluoromethyl)pyridin-2-yl]benzamide], the IC50 was 0.71 nM.

Consider `CCC(=O)N1CCC[C@@H](c2nn(-c3ccc(C(=O)Nc4cc(C(F)(F)F)ccn4)cc3)c3c(N)nccc23)C1` [Example 11, 4-{7-amino-3-[(3R)-1-propanoylpiperidin-3-yl]-1H-pyrazolo[3,4-c]pyridin-1-yl}-N-[4-(trifluoromethyl)pyridin-2-yl]benzamide], for which the IC50 was determined as 0.57 nM.

Take `Nc1nccc2c([C@@H]3CCCN(C(=O)C4CC4(F)F)C3)nn(-c3ccc(C(=O)Nc4cc(C(F)(F)F)ccn4)cc3)c12` (stereo partly drawn) [Example 12, 4-(7-amino-3-{(3R)-1-[(2,2-difluorocyclopropyl)carbonyl]piperidin-3-yl}-1H-pyrazolo[3,4-c]pyridin-1-yl)-N-[4-(trifluoromethyl)pyridin-2-yl]benzamide]: the IC50 amounted to 3 nM.

Turning to `Nc1nccc2c([C@@H]3CCCN(C(=O)c4cnon4)C3)nn(-c3ccc(C(=O)Nc4cc(C(F)(F)F)ccn4)cc3)c12` [Example 13, 4-{7-amino-3-[(3R)-1-(1,2,5-oxadiazol-3-ylcarbonyl)piperidin-3-yl]-1H-pyrazolo[3,4-c]pyridin-1-yl}-N-[4-(trifluoromethyl)pyridin-2-yl]benzamide], the IC50 worked out at 4.7 nM.

As for `Nc1nccc2c([C@@H]3CCCN(C(=O)CC4CCC4)C3)nn(-c3ccc(C(=O)Nc4cc(C(F)(F)F)ccn4)cc3)c12` [Example 14, 4-{7-amino-3-[(3R)-1-(cyclobutylacetyl)piperidin-3-yl]-1H-pyrazolo[3,4-c]pyridin-1-yl}-N-[4-(trifluoromethyl)pyridin-2-yl]benzamide], the IC50 is 3.5 nM.

In the case of `Cc1noc(C)c1C(=O)N1CCC[C@@H](c2nn(-c3ccc(C(=O)Nc4cc(C(F)(F)F)ccn4)cc3)c3c(N)nccc23)C1` [Example 15, 4-(7-amino-3-{(3R)-1-[(3,5-dimethylisoxazol-4-yl)carbonyl]piperidin-3-yl}-1H-pyrazolo[3,4-c]pyridin-1-yl)-N-[4-(trifluoromethyl)pyridin-2-yl]benzamide], the IC50 was determined as 5.3 nM.

As to `COCCC(=O)N1CCC[C@@H](c2nn(-c3ccc(C(=O)Nc4cc(C(F)(F)F)ccn4)cc3)c3c(N)nccc23)C1` [Example 16, 4-{7-amino-3-[(3R)-1-(3-methoxypropanoyl)piperidin-3-yl]-1H-pyrazolo[3,4-c]pyridin-1-yl}-N-[4-(trifluoromethyl)pyridin-2-yl]benzamide], the IC50 was determined as 0.51 nM.

As for `Nc1nccc2c([C@@H]3CCCN(C(=O)C4CC(F)(F)C4)C3)nn(-c3ccc(C(=O)Nc4cc(C(F)(F)F)ccn4)cc3)c12` [Example 17, 4-(7-amino-3-{(3R)-1-[(3,3-difluorocyclobutyl)carbonyl]piperidin-3-yl}-1H-pyrazolo[3,4-c]pyridin-1-yl)-N-[4-(trifluoromethyl)pyridin-2-yl]benzamide], the IC50 was determined as 2.5 nM.

As to `COCC(=O)N1CCC[C@@H](c2nn(-c3ccc(C(=O)Nc4cc(C(F)(F)F)ccn4)cc3)c3c(N)nccc23)C1` [Example 18, 4-{7-amino-3-[(3R)-1-(methoxyacetyl)piperidin-3-yl]-1H-pyrazolo[3,4-c]pyridin-1-yl}-N-[4-(trifluoromethyl)pyridin-2-yl]benzamide], the IC50 worked out at 0.9 nM.

In the case of `CC(C)C(=O)N1CCC[C@@H](c2nn(-c3ccc(C(=O)Nc4cc(C(F)(F)F)ccn4)cc3)c3c(N)nccc23)C1` [Example 19, 4-{7-amino-3-[(3R)-1-(2-methylpropanoyl)piperidin-3-yl]-1H-pyrazolo[3,4-c]pyridin-1-yl}-N-[4-(trifluoromethyl)pyridin-2-yl]benzamide], the half-inhibitory concentration (IC50) stood at 1.2 nM.

For the compound `Nc1nccc2c([C@@H]3CCCN(C(=O)C4CCC4)C3)nn(-c3ccc(C(=O)Nc4cc(C(F)(F)F)ccn4)cc3)c12` [Example 20, 4-{7-amino-3-[(3R)-1-(cyclobutylcarbonyl)piperidin-3-yl]-1H-pyrazolo[3,4-c]pyridin-1-yl}-N-[4-(trifluoromethyl)pyridin-2-yl]benzamide], the IC50 stood at 1.6 nM.

On to `CC(=O)N1CCC[C@@H](c2nn(-c3ccc(C(=O)Nc4cc(C(F)(F)F)ccn4)cc3)c3c(N)nccc23)C1` [Example 21, 4-{3-[(3R)-l-acetylpiperidin-3-yl]-7-amino-1H-pyrazolo[3,4-c]pyridin-1-yl}-N-[4-(trifluoromethyl)pyridin-2-yl]benzamide], for which the half-maximal inhibitory concentration (IC50) worked out at 0.53 nM.

Regarding `CCOCC(=O)N1CCC[C@@H](c2nn(-c3ccc(C(=O)Nc4cc(C(F)(F)F)ccn4)cc3)c3c(N)nccc23)C1` [Example 22, 4-{7-amino-3-[(3R)-1-(ethoxyacetyl)piperidin-3-yl]-1H-pyrazolo[3,4-c]pyridin-1-yl}-N-[4-(trifluoromethyl)pyridin-2-yl]benzamide], the IC50 came out at 1.2 nM.

Regarding `COCCOCC(=O)N1CCC[C@@H](c2nn(-c3ccc(C(=O)Nc4cc(C(F)(F)F)ccn4)cc3)c3c(N)nccc23)C1` [Example 23, 4-(7-amino-3-{(3R)-1-[(2-methoxyethoxy)acetyl]piperidin-3-yl}-1H-pyrazolo[3,4-c]pyridin-1-yl)-N-[4-(trifluoromethyl)pyridin-2-yl]benzamide], the half-maximal inhibitory concentration (IC50) is 1.2 nM.

As for `Nc1nccc2c([C@@H]3CCCN(C(=O)C4CC4)C3)nn(-c3ccc(C(=O)Nc4cc(C(F)(F)F)ccn4)cc3)c12` [Example 24, 4-{7-amino-3-[(3R)-1-(cyclopropylcarbonyl)piperidin-3-yl]-1H-pyrazolo[3,4-c]pyridin-1-yl}-N-[4-(trifluoromethyl)pyridin-2-yl]benzamide], the half-inhibitory concentration (IC50) came out at 0.86 nM.

With `Nc1nccc2c([C@@H]3CCCN(C(=O)C4(O)CC4)C3)nn(-c3ccc(C(=O)Nc4cc(C(F)(F)F)ccn4)cc3)c12` [Example 25, 4-(7-amino-3-{(3R)-1-[(1-hydroxycyclopropyl)carbonyl]piperidin-3-yl}-1H-pyrazolo[3,4-c]pyridin-1-yl)-N-[4-(trifluoromethyl)pyridin-2-yl]benzamide], the IC50 stood at 0.59 nM.

As for `CC1(C(=O)N2CCC[C@@H](c3nn(-c4ccc(C(=O)Nc5cc(C(F)(F)F)ccn5)cc4)c4c(N)nccc34)C2)CC1` [Example 26, 4-(7-amino-3-{(3R)-1-[(1-methylcyclopropyl)carbonyl]piperidin-3-yl}-1H-pyrazolo[3,4-c]pyridin-1-yl)-N-[4-(trifluoromethyl)pyridin-2-yl]benzamide], the IC50 stood at 0.81 nM.
